# According to article PMC8333062, “Chemical tools for epichaperome-mediated interactome dysfunctions of the central nervous system” (Nature Communications, 2021):
# What was measured:
# Assay in all cases: scanEDGE off-target screen
# Type in all cases: binding
# 97 kinases [1] = molecular target: T1, 97 kinases (Homo sapiens, UniProt Q9H4B4); settings: read-out: %Ctrl PLK3
# T1 construct: purchased Ambit Biosciences (scanEDGE / KINOMEscan) scanEDGE 97 kinase panel; host or cells: T7 phage in E. coli BL21-derived host; remaining kinases in HEK-293 cells
# 97 kinases [2] = molecular target: T2, 97 kinases (Homo sapiens, UniProt P00533); settings: read-out: %Ctrl EGFR
# T2 construct: purchased Ambit Biosciences (scanEDGE / KINOMEscan) scanEDGE 97 kinase panel; host or cells: T7 phage in E. coli BL21-derived host; remaining kinases in HEK-293 cells
# 97 kinases [3] = molecular target: T3, 97 kinases (Homo sapiens, UniProt P48736); settings: read-out: %Ctrl PIK3CG
# T3 construct: purchased Ambit Biosciences (scanEDGE / KINOMEscan) scanEDGE 97 kinase panel; host or cells: T7 phage in E. coli BL21-derived host; remaining kinases in HEK-293 cells
# 97 kinases [4] = molecular target: T4, 97 kinases (Homo sapiens, UniProt P04629); settings: read-out: %Ctrl TRKA
# T4 construct: purchased Ambit Biosciences (scanEDGE / KINOMEscan) scanEDGE 97 kinase panel; host or cells: T7 phage in E. coli BL21-derived host; remaining kinases in HEK-293 cells
# 97 kinases [5] = molecular target: T5, 97 kinases (Homo sapiens, UniProt O15075); settings: read-out: %Ctrl DCAMKL1
# T5 construct: purchased Ambit Biosciences (scanEDGE / KINOMEscan) scanEDGE 97 kinase panel; host or cells: T7 phage in E. coli BL21-derived host; remaining kinases in HEK-293 cells
# 97 kinases [6] = molecular target: T6, 97 kinases (Homo sapiens, UniProt P30530); settings: read-out: %Ctrl AXL
# T6 construct: purchased Ambit Biosciences (scanEDGE / KINOMEscan) scanEDGE 97 kinase panel; host or cells: T7 phage in E. coli BL21-derived host; remaining kinases in HEK-293 cells
# 97 kinases [7] = molecular target: T7, 97 kinases (Homo sapiens, UniProt P15056, V600E); settings: read-out: %Ctrl BRAF(V600E)
# T7 construct: purchased Ambit Biosciences (scanEDGE / KINOMEscan) scanEDGE 97 kinase panel; host or cells: T7 phage in E. coli BL21-derived host; remaining kinases in HEK-293 cells
# 97 kinases [8] = molecular target: T8, 97 kinases (Homo sapiens, UniProt P04626); settings: read-out: %Ctrl ERBB2
# T8 construct: purchased Ambit Biosciences (scanEDGE / KINOMEscan) scanEDGE 97 kinase panel; host or cells: T7 phage in E. coli BL21-derived host; remaining kinases in HEK-293 cells
# 97 kinases [9] = molecular target: T9, 97 kinases (Homo sapiens, UniProt P49841); settings: read-out: %Ctrl GSK3B
# T9 construct: purchased Ambit Biosciences (scanEDGE / KINOMEscan) scanEDGE 97 kinase panel; host or cells: T7 phage in E. coli BL21-derived host; remaining kinases in HEK-293 cells
# 97 kinases [10] = molecular target: T10, 97 kinases (Homo sapiens, UniProt Q15831); settings: read-out: %Ctrl LKB1
# T10 construct: purchased Ambit Biosciences (scanEDGE / KINOMEscan) scanEDGE 97 kinase panel; host or cells: T7 phage in E. coli BL21-derived host; remaining kinases in HEK-293 cells
# 97 kinases [11] = molecular target: T11, 97 kinases (Homo sapiens, UniProt P17612); settings: read-out: %Ctrl PKAC-alpha
# T11 construct: purchased Ambit Biosciences (scanEDGE / KINOMEscan) scanEDGE 97 kinase panel; host or cells: T7 phage in E. coli BL21-derived host; remaining kinases in HEK-293 cells
# 97 kinases [12] = molecular target: T12, 97 kinases (Homo sapiens, UniProt P49137); settings: read-out: %Ctrl MAPKAPK2
# T12 construct: purchased Ambit Biosciences (scanEDGE / KINOMEscan) scanEDGE 97 kinase panel; host or cells: T7 phage in E. coli BL21-derived host; remaining kinases in HEK-293 cells
# 97 kinases [13] = molecular target: T13, 97 kinases (Homo sapiens, UniProt O15111); settings: read-out: %Ctrl IKK-alpha
# T13 construct: purchased Ambit Biosciences (scanEDGE / KINOMEscan) scanEDGE 97 kinase panel; host or cells: T7 phage in E. coli BL21-derived host; remaining kinases in HEK-293 cells
# 97 kinases [14] = molecular target: T14, 97 kinases (Homo sapiens, UniProt O75116); settings: read-out: %Ctrl ROCK2
# T14 construct: purchased Ambit Biosciences (scanEDGE / KINOMEscan) scanEDGE 97 kinase panel; host or cells: T7 phage in E. coli BL21-derived host; remaining kinases in HEK-293 cells
# 97 kinases [15] = molecular target: T15, 97 kinases (Homo sapiens, UniProt O14757); settings: read-out: %Ctrl CHEK1
# T15 construct: purchased Ambit Biosciences (scanEDGE / KINOMEscan) scanEDGE 97 kinase panel; host or cells: T7 phage in E. coli BL21-derived host; remaining kinases in HEK-293 cells
# 97 kinases [16] = molecular target: T16, 97 kinases (Homo sapiens, UniProt Q9BWU1); settings: read-out: %Ctrl CDK11
# T16 construct: purchased Ambit Biosciences (scanEDGE / KINOMEscan) scanEDGE 97 kinase panel; host or cells: T7 phage in E. coli BL21-derived host; remaining kinases in HEK-293 cells
# 97 kinases [17] = molecular target: T17, 97 kinases (Homo sapiens, UniProt P22607); settings: read-out: %Ctrl FGFR3
# T17 construct: purchased Ambit Biosciences (scanEDGE / KINOMEscan) scanEDGE 97 kinase panel; host or cells: T7 phage in E. coli BL21-derived host; remaining kinases in HEK-293 cells
# 97 kinases [18] = molecular target: T18, 97 kinases (Homo sapiens, UniProt Q9Y6R4); settings: read-out: %Ctrl MAP3K4
# T18 construct: purchased Ambit Biosciences (scanEDGE / KINOMEscan) scanEDGE 97 kinase panel; host or cells: T7 phage in E. coli BL21-derived host; remaining kinases in HEK-293 cells
# 97 kinases [19] = molecular target: T19, 97 kinases (Homo sapiens, UniProt Q13873); settings: read-out: %Ctrl BMPR2
# T19 construct: purchased Ambit Biosciences (scanEDGE / KINOMEscan) scanEDGE 97 kinase panel; host or cells: T7 phage in E. coli BL21-derived host; remaining kinases in HEK-293 cells
# 97 kinases [20] = molecular target: T20, 97 kinases (Homo sapiens, UniProt Q13153); settings: read-out: %Ctrl PAK1
# T20 construct: purchased Ambit Biosciences (scanEDGE / KINOMEscan) scanEDGE 97 kinase panel; host or cells: T7 phage in E. coli BL21-derived host; remaining kinases in HEK-293 cells
# 97 kinases [21] = molecular target: T21, 97 kinases (Homo sapiens, UniProt O00444); settings: read-out: %Ctrl PLK4
# T21 construct: purchased Ambit Biosciences (scanEDGE / KINOMEscan) scanEDGE 97 kinase panel; host or cells: T7 phage in E. coli BL21-derived host; remaining kinases in HEK-293 cells
# 97 kinases [22] = molecular target: T22, 97 kinases (Homo sapiens, UniProt Q9P1W9); settings: read-out: %Ctrl PIM2
# T22 construct: purchased Ambit Biosciences (scanEDGE / KINOMEscan) scanEDGE 97 kinase panel; host or cells: T7 phage in E. coli BL21-derived host; remaining kinases in HEK-293 cells
# 97 kinases [23] = molecular target: T23, 97 kinases (Homo sapiens, UniProt P11309); settings: read-out: %Ctrl PIM1
# T23 construct: purchased Ambit Biosciences (scanEDGE / KINOMEscan) scanEDGE 97 kinase panel; host or cells: T7 phage in E. coli BL21-derived host; remaining kinases in HEK-293 cells
# 97 kinases [24] = molecular target: T24, 97 kinases (Homo sapiens, UniProt P53350); settings: read-out: %Ctrl PLK1
# T24 construct: purchased Ambit Biosciences (scanEDGE / KINOMEscan) scanEDGE 97 kinase panel; host or cells: T7 phage in E. coli BL21-derived host; remaining kinases in HEK-293 cells
# 97 kinases [25] = molecular target: T25, 97 kinases (Homo sapiens, UniProt P42336); settings: read-out: %Ctrl PIK3CA
# T25 construct: purchased Ambit Biosciences (scanEDGE / KINOMEscan) scanEDGE 97 kinase panel; host or cells: T7 phage in E. coli BL21-derived host; remaining kinases in HEK-293 cells
# 97 kinases [26] = molecular target: T26, 97 kinases (Homo sapiens, UniProt P12931); settings: read-out: %Ctrl SRC
# T26 construct: purchased Ambit Biosciences (scanEDGE / KINOMEscan) scanEDGE 97 kinase panel; host or cells: T7 phage in E. coli BL21-derived host; remaining kinases in HEK-293 cells
# 97 kinases [27] = molecular target: T27, 97 kinases (Homo sapiens, UniProt P43403); settings: read-out: %Ctrl ZAP70
# T27 construct: purchased Ambit Biosciences (scanEDGE / KINOMEscan) scanEDGE 97 kinase panel; host or cells: T7 phage in E. coli BL21-derived host; remaining kinases in HEK-293 cells
# 97 kinases [28] = molecular target: T28, 97 kinases (Homo sapiens, UniProt P15056); settings: read-out: %Ctrl BRAF
# T28 construct: purchased Ambit Biosciences (scanEDGE / KINOMEscan) scanEDGE 97 kinase panel; host or cells: T7 phage in E. coli BL21-derived host; remaining kinases in HEK-293 cells
# 97 kinases [29] = molecular target: T29, 97 kinases (Homo sapiens, UniProt Q9UM73); settings: read-out: %Ctrl ALK
# T29 construct: purchased Ambit Biosciences (scanEDGE / KINOMEscan) scanEDGE 97 kinase panel; host or cells: T7 phage in E. coli BL21-derived host; remaining kinases in HEK-293 cells
# 97 kinases [30] = molecular target: T30, 97 kinases (Homo sapiens, UniProt Q8IYT8); settings: read-out: %Ctrl ULK2
# T30 construct: purchased Ambit Biosciences (scanEDGE / KINOMEscan) scanEDGE 97 kinase panel; host or cells: T7 phage in E. coli BL21-derived host; remaining kinases in HEK-293 cells
# 97 kinases [31] = molecular target: T31, 97 kinases (Homo sapiens, UniProt Q86UX6); settings: read-out: %Ctrl YANK3
# T31 construct: purchased Ambit Biosciences (scanEDGE / KINOMEscan) scanEDGE 97 kinase panel; host or cells: T7 phage in E. coli BL21-derived host; remaining kinases in HEK-293 cells
# 97 kinases [32] = molecular target: T32, 97 kinases (Homo sapiens, UniProt P08581); settings: read-out: %Ctrl MET
# T32 construct: purchased Ambit Biosciences (scanEDGE / KINOMEscan) scanEDGE 97 kinase panel; host or cells: T7 phage in E. coli BL21-derived host; remaining kinases in HEK-293 cells
# 97 kinases [33] = molecular target: T33, 97 kinases (Homo sapiens, UniProt P04049); settings: read-out: %Ctrl RAF1
# T33 construct: purchased Ambit Biosciences (scanEDGE / KINOMEscan) scanEDGE 97 kinase panel; host or cells: T7 phage in E. coli BL21-derived host; remaining kinases in HEK-293 cells
# 97 kinases [34] = molecular target: T34, 97 kinases (Homo sapiens, UniProt P29597); settings: read-out: %Ctrl TYK2(JH1domain-catalytic)
# T34 construct: purchased Ambit Biosciences (scanEDGE / KINOMEscan) scanEDGE 97 kinase panel; host or cells: T7 phage in E. coli BL21-derived host; remaining kinases in HEK-293 cells
# 97 kinases [35] = molecular target: T35, 97 kinases (Homo sapiens, UniProt P07333); settings: read-out: %Ctrl CSF1R
# T35 construct: purchased Ambit Biosciences (scanEDGE / KINOMEscan) scanEDGE 97 kinase panel; host or cells: T7 phage in E. coli BL21-derived host; remaining kinases in HEK-293 cells
# 97 kinases [36] = molecular target: T36, 97 kinases (Homo sapiens, UniProt P48730); settings: read-out: %Ctrl CSNK1D
# T36 construct: purchased Ambit Biosciences (scanEDGE / KINOMEscan) scanEDGE 97 kinase panel; host or cells: T7 phage in E. coli BL21-derived host; remaining kinases in HEK-293 cells
# 97 kinases [37] = molecular target: T37, 97 kinases (Homo sapiens, UniProt P00519, T315I); settings: read-out: %Ctrl ABL1(T315I)-phosphorylated
# T37 construct: purchased Ambit Biosciences (scanEDGE / KINOMEscan) scanEDGE 97 kinase panel; host or cells: T7 phage in E. coli BL21-derived host; remaining kinases in HEK-293 cells
# T4 sequence (P04629 33-796): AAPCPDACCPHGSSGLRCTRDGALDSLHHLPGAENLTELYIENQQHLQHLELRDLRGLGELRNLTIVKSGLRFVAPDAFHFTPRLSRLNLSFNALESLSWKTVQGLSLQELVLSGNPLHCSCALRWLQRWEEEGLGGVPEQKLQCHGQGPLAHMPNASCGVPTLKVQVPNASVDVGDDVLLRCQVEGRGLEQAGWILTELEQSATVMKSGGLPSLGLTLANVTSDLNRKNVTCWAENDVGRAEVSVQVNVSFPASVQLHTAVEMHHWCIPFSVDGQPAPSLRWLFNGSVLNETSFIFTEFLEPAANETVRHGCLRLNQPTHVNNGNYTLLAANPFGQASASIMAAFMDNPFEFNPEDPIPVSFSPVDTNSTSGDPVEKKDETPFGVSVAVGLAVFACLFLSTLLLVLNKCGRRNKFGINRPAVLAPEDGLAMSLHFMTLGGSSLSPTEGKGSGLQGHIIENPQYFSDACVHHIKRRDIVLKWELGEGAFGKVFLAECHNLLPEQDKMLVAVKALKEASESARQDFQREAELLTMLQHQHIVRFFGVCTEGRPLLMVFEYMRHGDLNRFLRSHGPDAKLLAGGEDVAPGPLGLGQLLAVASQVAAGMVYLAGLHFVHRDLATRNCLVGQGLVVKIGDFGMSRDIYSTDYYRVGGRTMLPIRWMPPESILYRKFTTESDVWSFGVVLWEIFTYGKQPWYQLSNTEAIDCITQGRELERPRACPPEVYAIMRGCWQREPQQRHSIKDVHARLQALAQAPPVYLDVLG
# T10 sequence (Q15831 whole entry): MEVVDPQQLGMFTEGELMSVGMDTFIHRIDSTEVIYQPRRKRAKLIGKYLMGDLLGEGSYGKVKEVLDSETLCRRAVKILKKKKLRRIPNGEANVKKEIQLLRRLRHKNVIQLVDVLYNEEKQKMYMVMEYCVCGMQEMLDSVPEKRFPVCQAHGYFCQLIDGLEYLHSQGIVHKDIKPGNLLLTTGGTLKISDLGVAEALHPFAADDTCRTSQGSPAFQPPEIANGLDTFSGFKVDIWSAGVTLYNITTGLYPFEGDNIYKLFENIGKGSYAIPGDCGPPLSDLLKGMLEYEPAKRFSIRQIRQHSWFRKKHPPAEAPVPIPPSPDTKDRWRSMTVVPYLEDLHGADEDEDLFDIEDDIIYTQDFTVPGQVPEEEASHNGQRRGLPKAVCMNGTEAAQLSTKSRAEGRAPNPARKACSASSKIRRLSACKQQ
# T21 sequence (O00444 whole entry): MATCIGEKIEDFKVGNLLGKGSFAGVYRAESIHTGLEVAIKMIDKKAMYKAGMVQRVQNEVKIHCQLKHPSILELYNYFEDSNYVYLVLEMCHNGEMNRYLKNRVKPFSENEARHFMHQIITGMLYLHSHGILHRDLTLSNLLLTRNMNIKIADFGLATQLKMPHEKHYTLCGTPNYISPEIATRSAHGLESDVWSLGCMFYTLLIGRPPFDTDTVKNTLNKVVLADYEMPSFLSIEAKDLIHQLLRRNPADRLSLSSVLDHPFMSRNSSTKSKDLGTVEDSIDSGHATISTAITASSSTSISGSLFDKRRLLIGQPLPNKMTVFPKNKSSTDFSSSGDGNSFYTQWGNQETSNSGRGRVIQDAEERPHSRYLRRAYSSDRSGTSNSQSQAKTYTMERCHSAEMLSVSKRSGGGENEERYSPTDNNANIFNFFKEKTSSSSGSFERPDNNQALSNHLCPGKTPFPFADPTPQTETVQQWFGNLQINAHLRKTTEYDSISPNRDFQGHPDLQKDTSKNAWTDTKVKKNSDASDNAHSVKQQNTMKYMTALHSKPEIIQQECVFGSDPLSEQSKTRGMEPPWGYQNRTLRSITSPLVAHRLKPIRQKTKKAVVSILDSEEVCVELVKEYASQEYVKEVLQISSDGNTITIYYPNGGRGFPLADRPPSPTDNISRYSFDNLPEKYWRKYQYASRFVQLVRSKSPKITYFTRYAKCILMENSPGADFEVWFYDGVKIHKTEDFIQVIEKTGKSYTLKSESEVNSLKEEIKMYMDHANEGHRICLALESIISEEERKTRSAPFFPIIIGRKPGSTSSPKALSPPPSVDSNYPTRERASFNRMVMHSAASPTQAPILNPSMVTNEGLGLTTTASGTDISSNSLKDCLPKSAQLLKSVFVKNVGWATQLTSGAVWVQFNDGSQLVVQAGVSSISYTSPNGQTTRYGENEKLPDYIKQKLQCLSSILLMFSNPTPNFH
# T7 sequence (P15056 whole entry V600E): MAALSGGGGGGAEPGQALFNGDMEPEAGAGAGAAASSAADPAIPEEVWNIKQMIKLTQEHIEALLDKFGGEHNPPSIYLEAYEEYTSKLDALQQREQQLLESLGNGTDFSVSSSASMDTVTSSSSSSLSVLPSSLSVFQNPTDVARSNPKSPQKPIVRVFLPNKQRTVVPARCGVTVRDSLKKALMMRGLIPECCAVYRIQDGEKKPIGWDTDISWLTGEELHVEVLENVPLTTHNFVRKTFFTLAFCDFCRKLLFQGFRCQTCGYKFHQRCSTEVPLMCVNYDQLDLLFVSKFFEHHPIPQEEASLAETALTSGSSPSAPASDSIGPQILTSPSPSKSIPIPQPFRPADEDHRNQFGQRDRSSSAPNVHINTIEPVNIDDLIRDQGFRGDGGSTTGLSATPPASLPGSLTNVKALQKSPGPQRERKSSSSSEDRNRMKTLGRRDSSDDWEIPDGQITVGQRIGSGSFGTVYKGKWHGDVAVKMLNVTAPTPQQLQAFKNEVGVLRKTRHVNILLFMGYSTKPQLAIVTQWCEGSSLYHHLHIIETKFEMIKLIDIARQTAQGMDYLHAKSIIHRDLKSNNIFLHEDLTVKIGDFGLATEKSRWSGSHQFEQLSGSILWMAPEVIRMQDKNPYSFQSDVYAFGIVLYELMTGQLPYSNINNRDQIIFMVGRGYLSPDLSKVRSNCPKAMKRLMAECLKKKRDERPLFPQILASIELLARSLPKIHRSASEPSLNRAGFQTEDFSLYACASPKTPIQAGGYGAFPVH
# T26 sequence (P12931 whole entry): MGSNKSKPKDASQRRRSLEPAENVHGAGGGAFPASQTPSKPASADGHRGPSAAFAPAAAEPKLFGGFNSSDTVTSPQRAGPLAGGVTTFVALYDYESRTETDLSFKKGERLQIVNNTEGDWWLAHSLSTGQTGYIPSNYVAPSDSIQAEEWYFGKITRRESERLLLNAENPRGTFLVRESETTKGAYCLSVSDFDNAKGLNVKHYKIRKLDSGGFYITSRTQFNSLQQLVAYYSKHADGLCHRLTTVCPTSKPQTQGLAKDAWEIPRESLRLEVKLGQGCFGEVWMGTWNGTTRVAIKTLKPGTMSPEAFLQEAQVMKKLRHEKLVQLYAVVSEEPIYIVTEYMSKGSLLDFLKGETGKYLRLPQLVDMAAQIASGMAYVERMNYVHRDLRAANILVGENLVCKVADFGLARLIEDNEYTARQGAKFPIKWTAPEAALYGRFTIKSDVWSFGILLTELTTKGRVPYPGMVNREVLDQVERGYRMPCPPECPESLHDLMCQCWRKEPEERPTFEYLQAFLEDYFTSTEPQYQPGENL
# T30 sequence (Q8IYT8 whole entry): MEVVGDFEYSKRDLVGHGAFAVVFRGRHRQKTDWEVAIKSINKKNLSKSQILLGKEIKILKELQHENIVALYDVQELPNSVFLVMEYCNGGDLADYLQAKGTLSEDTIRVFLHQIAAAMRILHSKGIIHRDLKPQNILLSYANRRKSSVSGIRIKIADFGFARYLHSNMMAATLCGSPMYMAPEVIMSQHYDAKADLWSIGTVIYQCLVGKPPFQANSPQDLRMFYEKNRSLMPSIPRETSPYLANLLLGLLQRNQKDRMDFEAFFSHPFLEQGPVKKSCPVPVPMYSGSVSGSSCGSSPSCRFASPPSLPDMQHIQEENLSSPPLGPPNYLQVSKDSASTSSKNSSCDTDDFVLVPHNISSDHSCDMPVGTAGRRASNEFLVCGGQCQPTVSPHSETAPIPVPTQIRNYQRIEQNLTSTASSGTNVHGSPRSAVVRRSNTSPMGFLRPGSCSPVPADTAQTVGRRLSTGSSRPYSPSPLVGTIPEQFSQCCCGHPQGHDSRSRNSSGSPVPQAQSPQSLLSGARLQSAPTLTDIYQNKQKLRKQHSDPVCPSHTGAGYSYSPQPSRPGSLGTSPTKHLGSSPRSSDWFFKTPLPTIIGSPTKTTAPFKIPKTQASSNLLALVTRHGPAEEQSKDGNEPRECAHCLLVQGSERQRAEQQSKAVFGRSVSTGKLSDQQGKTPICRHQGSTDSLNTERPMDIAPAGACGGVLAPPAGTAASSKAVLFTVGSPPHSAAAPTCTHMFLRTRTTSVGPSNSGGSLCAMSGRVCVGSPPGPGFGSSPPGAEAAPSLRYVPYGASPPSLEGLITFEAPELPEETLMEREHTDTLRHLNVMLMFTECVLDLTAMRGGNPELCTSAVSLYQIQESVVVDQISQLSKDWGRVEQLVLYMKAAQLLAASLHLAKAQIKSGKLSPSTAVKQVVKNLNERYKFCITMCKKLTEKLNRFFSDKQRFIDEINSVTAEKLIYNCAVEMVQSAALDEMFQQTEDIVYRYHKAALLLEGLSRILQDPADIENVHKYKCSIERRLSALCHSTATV
# T12 sequence (P49137 whole entry): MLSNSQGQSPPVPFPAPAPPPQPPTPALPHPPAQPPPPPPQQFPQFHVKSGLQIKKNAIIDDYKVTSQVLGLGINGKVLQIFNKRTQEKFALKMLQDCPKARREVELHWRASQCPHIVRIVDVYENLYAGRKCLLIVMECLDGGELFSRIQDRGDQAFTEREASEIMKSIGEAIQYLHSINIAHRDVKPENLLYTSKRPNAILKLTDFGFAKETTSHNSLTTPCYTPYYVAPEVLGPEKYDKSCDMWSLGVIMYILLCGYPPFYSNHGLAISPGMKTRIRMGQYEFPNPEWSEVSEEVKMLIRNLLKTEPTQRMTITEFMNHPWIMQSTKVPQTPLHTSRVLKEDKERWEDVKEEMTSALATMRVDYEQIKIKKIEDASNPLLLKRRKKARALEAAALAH
# T28 sequence (P15056 whole entry): as the sequence (P15056 whole entry V600E) above, with E600V counted along it
smiles,measurement,setting,value
CC(C)(C)CNCCn1c(Sc2cc3c(cc2I)OCO3)nc2c(N)ncnc21 [Compound 85],remaining binding at 10 µM,97 kinases [1],88%
same,remaining binding at 10 µM,97 kinases [2],96%
same,remaining binding at 10 µM,97 kinases [3],94%
same,remaining binding at 10 µM,97 kinases [4],95%
same,remaining binding at 10 µM,97 kinases [5],78%
same,remaining binding at 10 µM,97 kinases [6],100%
same,remaining binding at 10 µM,97 kinases [7],97%
same,remaining binding at 10 µM,97 kinases [8],100%
same,remaining binding at 10 µM,97 kinases [9],88%
same,remaining binding at 10 µM,97 kinases [10],81%
same,remaining binding at 10 µM,97 kinases [11],87%
same,remaining binding at 10 µM,97 kinases [12],96%
same,remaining binding at 10 µM,97 kinases [13],99%
same,remaining binding at 10 µM,97 kinases [14],97%
same,remaining binding at 10 µM,97 kinases [15],100%
same,remaining binding at 10 µM,97 kinases [16],90%
same,remaining binding at 10 µM,97 kinases [17],95%
same,remaining binding at 10 µM,97 kinases [18],49%
same,remaining binding at 10 µM,97 kinases [19],97%
same,remaining binding at 10 µM,97 kinases [20],92%
same,remaining binding at 10 µM,97 kinases [21],89%
same,remaining binding at 10 µM,97 kinases [22],81%
same,remaining binding at 10 µM,97 kinases [23],79%
same,remaining binding at 10 µM,97 kinases [24],97%
same,remaining binding at 10 µM,97 kinases [25],87%
same,remaining binding at 10 µM,97 kinases [26],100%
same,remaining binding at 10 µM,97 kinases [27],78%
same,remaining binding at 10 µM,97 kinases [28],100%
same,remaining binding at 10 µM,97 kinases [29],93%
same,remaining binding at 10 µM,97 kinases [30],94%
same,remaining binding at 10 µM,97 kinases [31],95%
same,remaining binding at 10 µM,97 kinases [32],100%
same,remaining binding at 10 µM,97 kinases [33],74%
same,remaining binding at 10 µM,97 kinases [34],99%
same,remaining binding at 10 µM,97 kinases [35],94%
same,remaining binding at 10 µM,97 kinases [36],91%
same,remaining binding at 10 µM,97 kinases [37],96%
